Where a name gives a salt, the structure may show the parent alone.
System: patients with advanced solid tumours
Test: Phase I safety: DLT and adverse events (CTCAE v3.0)
Settings: Grades 3/4
[1] = level 1, 10 mg 3 days every 2 weeks, 3 patients

Method: Study drug was administered at a starting dose of 10 mg on days 1–3 and 15–17 for the first dose level while for subsequent dose levels, treatment was administered on days 1–5 and 15–19, within a 28-day cycle. No intra-patient dose escalation was allowed. Dose escalation followed the standard 3+3 rule, but the protocol did allow up to four patients to be entered in the first stage of accrual at each dose level. The maximum administered dose was defined as the dose level at which ⩾2/3 or ⩾2/6 patients experienced dose-limiting toxicity (DLT). The next lower dose would normally be declared the RPTD for expansion to confirm the tolerability and PK and/or PD relationships at this dose level.
In cycle 1, patients were seen on days 1, 5, 8, 15, 19, 22 and weekly in subsequent cycles for laboratory studies and assessment of toxicity. […] In addition, troponin levels were obtained on days 1, 5, 15 in cycle 1 and on day 1 of subsequent cycles.
Patients who experienced any DLT were delayed by 1-week intervals until recovery and could continue on study drug with a reduction of one dose level. If no recovery occurred after a delay of 2 weeks from the next scheduled 5-day treatment, patients were discontinued from protocol treatment. In addition, patients must have an absolute neutrophil count of ⩾1.5 × 10^9 l^−1 and a platelet level of ⩾100 × 10^9 l^−1 before day 1 and 15 dosing.

CCCCc1nc2cc(/C=C/C(=O)NO)ccc2n1CCN(CC)CC [SB939, 3-[2-butyl-1-(2-diethylaminoethyl)-1H-benzoimidazol-5-yl]-N-hydroxyacrylami-hydrochloride]
Myositis, no. of patients [1]: 0 | Nausea, no. of patients [1]: 0 | Neutropenia, no. of patients [1]: 1 | QT prolongation, no. of patients [1]: 0 | Supra ventricular arrythmia, no. of patients [1]: 0 | Syncope, no. of patients [1]: 0 | Thrombocytopenia, no. of patients [1]: 0 | Ventricular arrythmias (PVCs), no. of patients [1]: 0 | Ventricular bigemini, no. of patients [1]: 0 | Vomiting, no. of patients [1]: 0 | ALT (raised), no. of patients (level 2, 10 mg, 6 patients): 0 | AST (raised), no. of patients (level 2, 10 mg, 6 patients): 0 | Abdominal pain, no. of patients (level 2, 10 mg, 6 patients): 0 | Alkaline phophatase (raised), no. of patients (level 2, 10 mg, 6 patients): 1 | Altered taste, no. of patients (level 2, 10 mg, 6 patients): 0 | Anaemia, no. of patients (level 2, 10 mg, 6 patients): 0 | Anorexia, no. of patients (level 2, 10 mg, 6 patients): 0 | Bilirubin (raised), no. of patients (level 2, 10 mg, 6 patients): 0 | CPK, no. of patients (level 2, 10 mg, 6 patients): 0 | Cardiac arrythmia other, no. of patients (level 2, 10 mg, 6 patients): 0 | Cardiac dysfunction, no. of patients (level 2, 10 mg, 6 patients): 0 | Cardiac ischaemia, no. of patients (level 2, 10 mg, 6 patients): 0 | Constipation, no. of patients (level 2, 10 mg, 6 patients): 0 | Creatinine (raised), no. of patients (level 2, 10 mg, 6 patients): 0 | Diarrhoea, no. of patients (level 2, 10 mg, 6 patients): 0 | Fatigue, no. of patients (level 2, 10 mg, 6 patients): 0 | Leukopenia, no. of patients (level 2, 10 mg, 6 patients): 0 | Lymphopenia, no. of patients (level 2, 10 mg, 6 patients): 2 | Mucositis, no. of patients (level 2, 10 mg, 6 patients): 0 | Myositis, no. of patients (level 2, 10 mg, 6 patients): 0 | Nausea, no. of patients (level 2, 10 mg, 6 patients): 0 | Neutropenia, no. of patients (level 2, 10 mg, 6 patients): 0 | QT prolongation, no. of patients (level 2, 10 mg, 6 patients): 0 | Supra ventricular arrythmia, no. of patients (level 2, 10 mg, 6 patients): 0 | Syncope, no. of patients (level 2, 10 mg, 6 patients): 0 | Thrombocytopenia, no. of patients (level 2, 10 mg, 6 patients): 0 | Ventricular arrythmias (PVCs), no. of patients (level 2, 10 mg, 6 patients): 0 | Ventricular bigemini, no. of patients (level 2, 10 mg, 6 patients): 0 | Vomiting, no. of patients (level 2, 10 mg, 6 patients): 0 | ALT (raised), no. of patients (level 3, 20 mg, 6 patients): 0 | AST (raised), no. of patients (level 3, 20 mg, 6 patients): 0 | Abdominal pain, no. of patients (level 3, 20 mg, 6 patients): 0 | Alkaline phophatase (raised), no. of patients (level 3, 20 mg, 6 patients): 1 | Altered taste, no. of patients (level 3, 20 mg, 6 patients): 0 | Anaemia, no. of patients (level 3, 20 mg, 6 patients): 1 | Anorexia, no. of patients (level 3, 20 mg, 6 patients): 0 | Bilirubin (raised), no. of patients (level 3, 20 mg, 6 patients): 0 | CPK, no. of patients (level 3, 20 mg, 6 patients): 1 | Cardiac arrythmia other, no. of patients (level 3, 20 mg, 6 patients): 0 | Cardiac dysfunction, no. of patients (level 3, 20 mg, 6 patients): 0 | Cardiac ischaemia, no. of patients (level 3, 20 mg, 6 patients): 0 | Constipation, no. of patients (level 3, 20 mg, 6 patients): 0 | Creatinine (raised), no. of patients (level 3, 20 mg, 6 patients): 0 | Diarrhoea, no. of patients (level 3, 20 mg, 6 patients): 0 | Fatigue, no. of patients (level 3, 20 mg, 6 patients): 0 | Leukopenia, no. of patients (level 3, 20 mg, 6 patients): 0 | Lymphopenia, no. of patients (level 3, 20 mg, 6 patients): 0 | Mucositis, no. of patients (level 3, 20 mg, 6 patients): 0 | Myositis, no. of patients (level 3, 20 mg, 6 patients): 1 | Nausea, no. of patients (level 3, 20 mg, 6 patients): 0 | Neutropenia, no. of patients (level 3, 20 mg, 6 patients): 0 | QT prolongation, no. of patients (level 3, 20 mg, 6 patients): 0 | Supra ventricular arrythmia, no. of patients (level 3, 20 mg, 6 patients): 0 | Syncope, no. of patients (level 3, 20 mg, 6 patients): 1 | Thrombocytopenia, no. of patients (level 3, 20 mg, 6 patients): 0 | Ventricular arrythmias (PVCs), no. of patients (level 3, 20 mg, 6 patients): 0 | Ventricular bigemini, no. of patients (level 3, 20 mg, 6 patients): 0 | Vomiting, no. of patients (level 3, 20 mg, 6 patients): 0 | ALT (raised), no. of patients (level 4, 30 mg, 4 patients): 0 | AST (raised), no. of patients (level 4, 30 mg, 4 patients): 0 | Abdominal pain, no. of patients (level 4, 30 mg, 4 patients): 0 | Alkaline phophatase (raised), no. of patients (level 4, 30 mg, 4 patients): 0 | Altered taste, no. of patients (level 4, 30 mg, 4 patients): 0 | Anaemia, no. of patients (level 4, 30 mg, 4 patients): 0 | Anorexia, no. of patients (level 4, 30 mg, 4 patients): 0 | Bilirubin (raised), no. of patients (level 4, 30 mg, 4 patients): 0 | CPK, no. of patients (level 4, 30 mg, 4 patients): 0 | Cardiac arrythmia other, no. of patients (level 4, 30 mg, 4 patients): 0 | Cardiac dysfunction, no. of patients (level 4, 30 mg, 4 patients): 0 | Cardiac ischaemia, no. of patients (level 4, 30 mg, 4 patients): 0 | Constipation, no. of patients (level 4, 30 mg, 4 patients): 0 | Creatinine (raised), no. of patients (level 4, 30 mg, 4 patients): 0 | Diarrhoea, no. of patients (level 4, 30 mg, 4 patients): 0 | Fatigue, no. of patients (level 4, 30 mg, 4 patients): 0 | Leukopenia, no. of patients (level 4, 30 mg, 4 patients): 0 | Lymphopenia, no. of patients (level 4, 30 mg, 4 patients): 0 | Mucositis, no. of patients (level 4, 30 mg, 4 patients): 0 | Myositis, no. of patients (level 4, 30 mg, 4 patients): 0 | Nausea, no. of patients (level 4, 30 mg, 4 patients): 0 | Neutropenia, no. of patients (level 4, 30 mg, 4 patients): 0 | QT prolongation, no. of patients (level 4, 30 mg, 4 patients): 0 | Supra ventricular arrythmia, no. of patients (level 4, 30 mg, 4 patients): 0 | Syncope, no. of patients (level 4, 30 mg, 4 patients): 0 | Thrombocytopenia, no. of patients (level 4, 30 mg, 4 patients): 0 | Ventricular arrythmias (PVCs), no. of patients (level 4, 30 mg, 4 patients): 0 | Ventricular bigemini, no. of patients (level 4, 30 mg, 4 patients): 0 | Vomiting, no. of patients (level 4, 30 mg, 4 patients): 0 | ALT (raised), no. of patients (level 5, 50 mg, 4 patients): 0 | AST (raised), no. of patients (level 5, 50 mg, 4 patients): 0 | Abdominal pain, no. of patients (level 5, 50 mg, 4 patients): 0 | Alkaline phophatase (raised), no. of patients (level 5, 50 mg, 4 patients): 0 | Altered taste, no. of patients (level 5, 50 mg, 4 patients): 0 | Anaemia, no. of patients (level 5, 50 mg, 4 patients): 0 | Anorexia, no. of patients (level 5, 50 mg, 4 patients): 0 | Bilirubin (raised), no. of patients (level 5, 50 mg, 4 patients): 0 | CPK, no. of patients (level 5, 50 mg, 4 patients): 0 | Cardiac arrythmia other, no. of patients (level 5, 50 mg, 4 patients): 0 | Cardiac dysfunction, no. of patients (level 5, 50 mg, 4 patients): 0 | Cardiac ischaemia, no. of patients (level 5, 50 mg, 4 patients): 0 | Constipation, no. of patients (level 5, 50 mg, 4 patients): 0 | Creatinine (raised), no. of patients (level 5, 50 mg, 4 patients): 0 | Diarrhoea, no. of patients (level 5, 50 mg, 4 patients): 0 | Fatigue, no. of patients (level 5, 50 mg, 4 patients): 0 | Leukopenia, no. of patients (level 5, 50 mg, 4 patients): 0 | Lymphopenia, no. of patients (level 5, 50 mg, 4 patients): 2 | Mucositis, no. of patients (level 5, 50 mg, 4 patients): 0 | Myositis, no. of patients (level 5, 50 mg, 4 patients): 0 | Nausea, no. of patients (level 5, 50 mg, 4 patients): 0 | Neutropenia, no. of patients (level 5, 50 mg, 4 patients): 0 | QT prolongation, no. of patients (level 5, 50 mg, 4 patients): 0 | Supra ventricular arrythmia, no. of patients (level 5, 50 mg, 4 patients): 0 | Syncope, no. of patients (level 5, 50 mg, 4 patients): 0 | Thrombocytopenia, no. of patients (level 5, 50 mg, 4 patients): 0 | Ventricular arrythmias (PVCs), no. of patients (level 5, 50 mg, 4 patients): 0 | Ventricular bigemini, no. of patients (level 5, 50 mg, 4 patients): 0 | Vomiting, no. of patients (level 5, 50 mg, 4 patients): 0 | ALT (raised), no. of patients (level 5.5, 60 mg, 7 patients): 2

From paper PMC3048208 (British Journal of Cancer, 2011)
